{
  "source": "patent US20230123148A1",
  "about": "“TARGETING QUORUM-SENSING PEPTIDES FOR DIAGNOSIS, TREATMENT AND/OR PREVENTION OF COLORECTAL CANCER METASTASIS” (UNIVERSITEIT GENT, priority 2020, published 2023)",
  "key": {"CXCR4 receptor": {"biological_target": "T1, CXCR4 receptor (Homo sapiens, UniProt P61073)", "T1 construct": "endogenous in cells; host or cells: luciferase transfected HCT-8/E11 cells", "T1 sequence (P61073 whole entry)": "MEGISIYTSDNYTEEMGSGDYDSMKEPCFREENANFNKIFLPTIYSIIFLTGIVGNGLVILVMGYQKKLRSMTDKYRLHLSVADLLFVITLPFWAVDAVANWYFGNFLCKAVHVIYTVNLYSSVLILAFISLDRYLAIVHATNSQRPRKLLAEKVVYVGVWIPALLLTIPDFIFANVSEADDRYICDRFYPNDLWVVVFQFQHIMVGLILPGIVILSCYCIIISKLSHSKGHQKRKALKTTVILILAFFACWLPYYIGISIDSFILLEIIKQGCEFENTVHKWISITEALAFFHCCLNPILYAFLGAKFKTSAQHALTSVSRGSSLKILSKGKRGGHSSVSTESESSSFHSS", "assay": "Antagonism of the E-cadherin reducing effect of QSP76 (Western blot, HCT-8 cells)", "type": "cell-based", "conditions": "for relative E-cadherin expression: PBS = 100%", "procedure": "Western Blot analyses. 1×10^6 luciferase transfected HCT-8/E11 cells were seeded in each well of a 6-well plate. […] After 24 hours, cells were detached from the surface and lysed with Thermo Scientific RIPA-buffer. The protein concentration was then determined using the modified Lowry protein assay kit, according to the manufacturer's instructions. All samples were diluted to the same concentration (i.e. 4 μg/μL) using water and diluted 1:1 using 2× Laemmli buffer. Next, the samples were boiled for 5 min at 95° C. for denaturation, after which centrifugation for 5 min at 16,000 g was performed; the supernatant was then used for Western blot analyses. Therefore, proteins (20 μg) were separated using a Bio-Rad Any kD gel (SDS-PAGE) and transferred to a PVDF membrane. Before the membranes were incubated with antibodies, non-specific binding sites were blocked using 5% skimmed milk solution (1 hour). Western blot was performed using an anti-E-cadherin (1/1000) antibody and incubated overnight at 4° C. Signal intensity was normalized against the total protein content in the lanes. Anti-rabbit-HRP antibody was used for detection (1/2000) (1 hour). Finally, the substrate (5 min) was added and the results were analyzed using the Bio-Rad ChemiDoc EZ imager and Image Lab software. TBS buffer with 0.05% Tween 20 was used for washing between the different steps."}, "[1]": {"test_system": "luciferase transfected HCT-8/E11 cells", "assay": "Orthotopic colorectal cancer mouse model", "type": "in vivo, female athymic nude mice (Swiss nu/nu)", "procedure": "Orthotopic colorectal cancer mouse model. All in vivo experiments were performed according to the Ethical Committee principles of laboratory animal welfare and approved by our institute (Ghent University, Faculty of Medicine and Health Sciences, approval number ECD 17-90). Mice were maintained in a sterile environment with light, humidity and temperature control (light-dark cycle with light from 7:00 h to 17:00 h, temperature 21-25° C. and humidity 45-65%). Before the experiment, mice were allowed to acclimatize for a minimum of seven days.\nSix-weeks old female athymic nude mice (Swiss nu/nu) were anesthetized and a small midline laparotomy executed to localize the caecum. The caecum was then gently exteriorized and luciferase transfected HCT-8/E11 cells (1×10^6 cells) in a volume of 20 μL serum-free DMEM medium with matrigel (1:1) injected into the caecal wall. Cells were previously treated with EntF* (10 nM, 100 nM or 1 μM), Phr0662 (100 nM) or with the vehicle (PBS) or positive control (Transforming Growth Factor α (TGFα), 0.1 μg mL^−1) solution for 5 days before they were implanted in the mice. The caecum was then carefully returned to the abdominal cavity and the laparotomy closed in two layers by sutures of PDS 6/0. Starting from the day after tumour cell injection, mice were daily treated by i.p. injection with vehicle (PBS, n=15), EntF* (10 nmol kg^−1, n=12; 100 nmol kg^−1, n=18; 1 μmol kg^−1, n=8), Phr0662 (100 nmol kg^−1, n=5) or positive control (Epidermal Growth Factor (EGF), 100 μg kg^−1, n=18) for 6 weeks. Once a week, mice were investigated for tumour growth and metastases using bioluminescent imaging with the IVIS Lumina II (Perkin Elmer, Belgium) after i.p. injection with 200 μL luciferin (150 mg kg^−1). After 6 weeks, mice were euthanized using cervical dislocation, followed by macroscopic evaluation of the liver, diaphragm, lungs, caecum, duodenum and peritoneum for the presence of tumour nodules. Liver and lung tissues were then fixed in formalin during 24 h and stored in 70% ethanol for max. 3 days before embedding in paraffin. Afterwards, a haematoxylin & eosin (H&E) staining was performed on 8 μm sections and 3 sections were visualized per mouse using microscopy. The slides of all tumour-bearing mice were scored by two blinded, independent investigators using a scoring system. In the case of a difference in scoring, the slide was scored again by a third blinded, independent investigator for consensus.\nStatistical analyses. The Kolmogorov-Smirnov test was used to assess if data obtained were normally distributed. For sample sizes of n<10, non-parametric tests (Mann-Whitney U test) were performed directly. Slope comparison was based on linear regression analysis. Bootstrapped medians and Hedges G-values were used to calculate the effect size."}, "HCT-8 CRC cells": {"test_system": "HCT-8 CRC cells", "conditions": "cited from earlier work"}, "[2]": {"conditions": "after 6 weeks daily i.p. treatment"}},
  "data": [
    {"substance": "SNLVECVFSLFKKCN (SNLVECVFSLKKCN; EntF metabolite) [EntF*]", "values": [
      {"measurement": "relative E-cadherin expression", "setting": "CXCR4 receptor; QSP76 alone, HCT-8 cells", "value": 66.0, "unit": "%"}
    ]},
    {"substance": "Epidermal Growth Factor [EGF]", "values": [
      {"measurement": "bioluminescence, Bootstrapped median difference (effect size, increase vs PBS)", "setting": "[1]; [2]", "value": 316, "unit": "%"},
      {"measurement": "bioluminescence, Hedges' g value (vs PBS)", "setting": "[1]; [2]", "value": 0.7},
      {"measurement": "bioluminescence, Median", "setting": "[1]; [2]", "value": 630},
      {"measurement": "increase in the number of nodules on the caecum compared to PBS", "setting": "[1]; after 6 weeks treatment", "value": 4.5, "unit": "fold"},
      {"measurement": "number of nodules on the caecum, Hedges' g value (vs PBS)", "setting": "[1]; after 6 weeks treatment", "value": 0.8},
      {"measurement": "number of nodules on the caecum, Median", "setting": "[1]; after 6 weeks treatment", "value": 14},
      {"measurement": "number of nodules on the caecum, Bootstrapped median difference", "setting": "[1]; after 6 weeks treatment, vs PBS", "value": 9},
      {"measurement": "tumour growth (luciferase activity, bioluminescent imaging) compared to vehicle", "setting": "[1]; weekly imaging during 6 weeks, linear regression slope comparison", "value": "significant increase of tumour growth"}
    ]},
    {"substance": "ERNNT [Phr0662]", "values": [
      {"measurement": "in vivo metastasis-promoting effect", "setting": "[1]; daily i.p. for 6 weeks", "value": "no in vivo metastasis-promoting effects"},
      {"measurement": "promotion of angiogenesis and/or tumour cell invasion in vitro", "setting": "HCT-8 CRC cells", "value": "promote in vitro cell invasion"}
    ]},
    {"substance": "ANLVECVFSLFKKCN (QSP76S1A) [EntF* antagonist]", "values": [
      {"measurement": "antagonistic effect on the in vitro pro-metastatic (E-cadherin reducing) effect of QSP76", "setting": "CXCR4 receptor; HCT-8 cells", "value": "reduces"},
      {"measurement": "relative E-cadherin expression", "setting": "CXCR4 receptor; mixture of antagonist with 5 μM EntF* (QSP76), HCT-8 cells", "value": 91.8, "unit": "%"},
      {"measurement": "Cohen's d effect size of normalisation in E-cadherin expression", "setting": "CXCR4 receptor; mixture with QSP76 versus QSP76 alone", "value": 0.77}
    ]}
  ]
}
